Measured values taken from the NIST ThermoML archive (doi:10.1021/je9006234).
Numbers after ± are expanded uncertainties.

Conditions: 298.15 K; 101.33 kPa; Liquid

SMILES | mass density
c1ccc2[nH]ccc2c1 [1H-indole] | 1216.68 ± 1.3 kg/m3
Nc1ccccc1 [aniline] | 1017.42 ± 0.19 kg/m3
CN(C)C=O [dimethylformamide] | 944.21 ± 0.23 kg/m3
CCCCCCCCCCCCCCCC [hexadecane] | 773.19 ± 0.32 kg/m3
c1ccncc1 [pyridine] | 978.25 ± 0.27 kg/m3
c1cc[nH]c1 [pyrrole] | 965.9 ± 2.9 kg/m3
c1ccc2ncccc2c1 [quinoline] | 1089.45 ± 0.31 kg/m3
